{"source": "patent US20090062369A1", "about": "“USE OF SECRETORY PHOSPHOLIPASE A2 (SPLA2) INHIBITORS TO DECREASE SPLA2 LEVELS” (priority 2007, published 2009)", "tested_on": "serum sPLA2", "experiment": "Effect of twice-a-day oral A-002 on serum sPLA2 levels in subjects with stable coronary artery disease (Example 6)", "assay_type": "in vivo, human", "method": "The protocol for preparing standard curve, test, and quality control samples for use in the assay disclosed herein is set forth in Example 5. Samples are prepared according to this protocol, then loaded in duplicate onto a plate (Cayman catalog no. 485002 or equivalent) that has been pre-coated with a monoclonal sPLA2 antibody (“capture antibody”) that specifically binds sPLA2. In certain embodiments, the capture antibody may interact with a specific form of sPLA2, such as for example sPLA2 type IIA.\nsPLA2 acetylcholinesterase:Fab′ conjugate (AChE:Fab′) (“conjugate”) (Cayman catalog no. 485000 or equivalent) is reconstituted in EIA buffer (Cayman catalog no. 400060 or equivalent). Cayman EIA buffer is 1M phosphate, pH 7.0, 1% BSA, 4M NaCl, 10 mM EDTA, and 0.1% sodium azide. Reconstituted conjugate is added to each well of the plate. The conjugate binds a different sPLA2 epitope than the capture antibody, allowing the capture antibody and the conjugate to form a “sandwich” that is immobilized on the plate. Excess reagents are washed away, and the plate is covered and incubated overnight at 2-8° C.\nPrior to development, the wells are washed five to six times with wash buffer (Cayman catalog no. 400062 or equivalent). To develop the plate, Ellman's Reagent (Cayman catalog no. 400050 or equivalent) is reconstituted in water and added to each well according to manufacturer instructions. The reconstituted Ellman's Reagent must be used the same day it is prepared because it is unstable. Ellman's Reagent contains an AChE substrate. Specifically, Ellman's Reagent contains acetylthiocholine and 5,5′-dithio-bis-(2-nitrobenzoic acid). Hydrolysis of acetylthiocholine by acetylcholinesterase produces thiocholine, which reacts with 5,5′-dithio-bis-(2-nitrobenzoic acid) to produce 5-thio-2-nitrobenzoic acid. 5-thio-2-nitrobenzoic acid has a strong absorbance at 412 nm. The intensity of absorbance at this wavelength is directly proportional to the concentration of bound conjugate, which is in turn is directly proportional to the concentration of sPLA2 present (Absorbance a [AChE:Fab′ conjugate] α [sPLA2]). During the development step, the plate is shaken, preferably in the dark. In certain embodiments the development time for the assay is 0.5 to 3 hours, preferably 1 to 1.5 hours. At the end of the development period, the high sPLA2 standards should have greater yellow color development than the zero standards. Absorbance of each well is measured at 400-420 nm using a micro-well plate reader. In certain embodiments, absorbance is measured at about 405 nm.\nAbsorbance readings for duplicate wells are averaged, and the relative standard deviation and % CV are calculated. Standard curve data are used to generate a four parameter curve, and quality control and test samples are measured against the appropriate standard curve (i.e., the standard curve with the same serum content). In order for a test to be considered valid, variation between duplicate wells should be no more than about 25%, and negative controls (blanks) for each standard curve should have a mean absorbance of less than about 0.3.\nThe method disclosed herein for measuring sPLA2 levels in serum was utilized to determine the effect of administering certain sPLA2 inhibitors on sPLA2 levels in 84 human subjects. The subjects included 24 subjects with diabetes, 32 subjects with metabolic syndrome, and 75 subjects receiving statin treatment. Subjects were administered the sPLA2 inhibitor A-002, a prodrug form of A-001, twice a day at varying dosages from 50 to 500 mg. The structures of A-002and A-001 are set forth below. At two weeks and four weeks after the first administration, sPLA2 levels were measured and compared to pre-administration baseline levels.\n84 subjects with stable coronary artery disease were randomized to receive placebo or A-002 via oral administration twice a day over a four week administration period. […]", "key": {"[1]": {"conditions": "100 mg, statin subgroup of ITT population"}, "[2]": {"conditions": "250 mg, diabetes subgroup of ITT population"}, "[3]": {"conditions": "250 mg, non-diabetes subgroup of ITT population"}}, "data": [{"smiles": "CCc1c(C(=O)C(N)=O)c2c(OCC(=O)OC)cccc2n1Cc1ccccc1", "note": "[A-002, [[3-(2-Amino-1,2-dioxoethyl)-2-ethyl-1-(phenylmethyl)-1H-indol-4-yl]oxy]acetic acid methyl ester]", "values": [{"measurement": "sPLA2 Change from baseline at week 4, Range", "setting": "[1]", "value": "-5.70 to 0.00", "unit": "ng/mL"}, {"measurement": "sPLA2 level, Baseline, Mean", "setting": "[1]", "value": 2.72, "unit": "ng/mL"}, {"measurement": "sPLA2 level, Baseline, Median", "setting": "[1]", "value": 2.65, "unit": "ng/mL"}, {"measurement": "sPLA2 level, Baseline, Range", "setting": "[1]", "value": "0.05 to 6.00", "unit": "ng/mL"}, {"measurement": "sPLA2 level, Week 2, Mean", "setting": "[1]", "value": 0.66, "unit": "ng/mL"}, {"measurement": "sPLA2 level, Week 2, Median", "setting": "[1]", "value": 0.40, "unit": "ng/mL"}, {"measurement": "sPLA2 level, Week 2, Range", "setting": "[1]", "value": "0.05 to 2.90", "unit": "ng/mL"}, {"measurement": "sPLA2 level, Week 4, Mean", "setting": "[1]", "value": 0.44, "unit": "ng/mL"}, {"measurement": "sPLA2 level, Week 4, Median", "setting": "[1]", "value": 0.40, "unit": "ng/mL"}, {"measurement": "sPLA2 level, Week 4, Range", "setting": "[1]", "value": "0.05 to 1.00", "unit": "ng/mL"}, {"measurement": "sPLA2 Change from baseline at week 2, Mean", "setting": "250 mg, ITT population", "value": -2.02, "unit": "ng/mL"}, {"measurement": "sPLA2 Change from baseline at week 2, Median", "setting": "250 mg, ITT population", "value": -1.90, "unit": "ng/mL"}, {"measurement": "sPLA2 Change from baseline at week 2, Range", "setting": "250 mg, ITT population", "value": "-4.20 to -0.20", "unit": "ng/mL"}, {"measurement": "sPLA2 Change from baseline at week 4, Mean", "setting": "250 mg, ITT population", "value": -2.13, "unit": "ng/mL"}, {"measurement": "sPLA2 Change from baseline at week 4, Median", "setting": "250 mg, ITT population", "value": -2.20, "unit": "ng/mL"}, {"measurement": "sPLA2 Change from baseline at week 4, Range", "setting": "250 mg, ITT population", "value": "-4.20 to 0.20", "unit": "ng/mL"}, {"measurement": "sPLA2 level, Baseline, Mean", "setting": "250 mg, ITT population", "value": 2.88, "unit": "ng/mL"}, {"measurement": "sPLA2 level, Baseline, Median", "setting": "250 mg, ITT population", "value": 2.40, "unit": "ng/mL"}, {"measurement": "sPLA2 level, Baseline, Range", "setting": "250 mg, ITT population", "value": "1.30 to 5.20", "unit": "ng/mL"}, {"measurement": "sPLA2 level, Week 2, Mean", "setting": "250 mg, ITT population", "value": 0.73, "unit": "ng/mL"}, {"measurement": "sPLA2 level, Week 2, Median", "setting": "250 mg, ITT population", "value": 0.35, "unit": "ng/mL"}, {"measurement": "sPLA2 level, Week 2, Range", "setting": "250 mg, ITT population", "value": "0.05 to 4.40", "unit": "ng/mL"}, {"measurement": "sPLA2 level, Week 4, Mean", "setting": "250 mg, ITT population", "value": 0.61, "unit": "ng/mL"}, {"measurement": "sPLA2 level, Week 4, Median", "setting": "250 mg, ITT population", "value": 0.35, "unit": "ng/mL"}, {"measurement": "sPLA2 level, Week 4, Range", "setting": "250 mg, ITT population", "value": "0.05 to 2.30", "unit": "ng/mL"}, {"measurement": "sPLA2 Change from baseline at week 2, Mean", "setting": "[2]", "value": -1.83, "unit": "ng/mL"}, {"measurement": "sPLA2 Change from baseline at week 2, Median", "setting": "[2]", "value": -1.10, "unit": "ng/mL"}, {"measurement": "sPLA2 Change from baseline at week 2, Range", "setting": "[2]", "value": "-4.20 to -0.20", "unit": "ng/mL"}, {"measurement": "sPLA2 Change from baseline at week 4, Mean", "setting": "[2]", "value": -1.75, "unit": "ng/mL"}, {"measurement": "sPLA2 Change from baseline at week 4, Median", "setting": "[2]", "value": -1.25, "unit": "ng/mL"}, {"measurement": "sPLA2 Change from baseline at week 4, Range", "setting": "[2]", "value": "−4.20 to +0.20 ng/ml"}, {"measurement": "sPLA2 level, Baseline, Mean", "setting": "[2]", "value": 3.00, "unit": "ng/mL"}, {"measurement": "sPLA2 level, Baseline, Median", "setting": "[2]", "value": 3.00, "unit": "ng/mL"}, {"measurement": "sPLA2 level, Baseline, Range", "setting": "[2]", "value": "1.30 to 4.70", "unit": "ng/mL"}, {"measurement": "sPLA2 level, Week 2, Mean", "setting": "[2]", "value": 0.60, "unit": "ng/mL"}, {"measurement": "sPLA2 level, Week 2, Median", "setting": "[2]", "value": 0.50, "unit": "ng/mL"}, {"measurement": "sPLA2 level, Week 2, Range", "setting": "[2]", "value": "0.20 to 1.10", "unit": "ng/mL"}, {"measurement": "sPLA2 level, Week 4, Mean", "setting": "[2]", "value": 0.68, "unit": "ng/mL"}, {"measurement": "sPLA2 level, Week 4, Median", "setting": "[2]", "value": 0.50, "unit": "ng/mL"}, {"measurement": "sPLA2 level, Week 4, Range", "setting": "[2]", "value": "0.05 to 1.50", "unit": "ng/mL"}, {"measurement": "sPLA2 Change from baseline at week 2, Mean", "setting": "[3]", "value": -2.08, "unit": "ng/mL"}, {"measurement": "sPLA2 Change from baseline at week 2, Median", "setting": "[3]", "value": -2.00, "unit": "ng/mL"}, {"measurement": "sPLA2 Change from baseline at week 2, Range", "setting": "[3]", "value": "-3.80 to -0.80", "unit": "ng/mL"}, {"measurement": "sPLA2 Change from baseline at week 4, Mean", "setting": "[3]", "value": -2.25, "unit": "ng/mL"}, {"measurement": "sPLA2 Change from baseline at week 4, Median", "setting": "[3]", "value": -2.20, "unit": "ng/mL"}, {"measurement": "sPLA2 Change from baseline at week 4, Range", "setting": "[3]", "value": "-3.50 to -1.20", "unit": "ng/mL"}, {"measurement": "sPLA2 level, Baseline, Mean", "setting": "[3]", "value": 2.84, "unit": "ng/mL"}, {"measurement": "sPLA2 level, Baseline, Median", "setting": "[3]", "value": 2.40, "unit": "ng/mL"}, {"measurement": "sPLA2 level, Baseline, Range", "setting": "[3]", "value": "1.50 to 5.20", "unit": "ng/mL"}, {"measurement": "sPLA2 level, Week 2, Mean", "setting": "[3]", "value": 0.76, "unit": "ng/mL"}, {"measurement": "sPLA2 level, Week 2, Median", "setting": "[3]", "value": 0.30, "unit": "ng/mL"}, {"measurement": "sPLA2 level, Week 2, Range", "setting": "[3]", "value": "0.05 to 4.40", "unit": "ng/mL"}, {"measurement": "sPLA2 level, Week 4, Mean", "setting": "[3]", "value": 0.60, "unit": "ng/mL"}, {"measurement": "sPLA2 level, Week 4, Median", "setting": "[3]", "value": 0.30, "unit": "ng/mL"}, {"measurement": "sPLA2 level, Week 4, Range", "setting": "[3]", "value": "0.05 to 2.30", "unit": "ng/mL"}]}]}
